Test results from patent publication US20100317647A1 (priority 2009, published 2010).

These compounds were tested against human Cat S (Homo sapiens, UniProt P25774) (assay: Cathepsin enzyme inhibition assay (fluorogenic peptide substrate cleavage)). Details: human Cat S 1 nM; substrate Z-Val-Val-Arg-AMC 20 μM; pH 6.5; fluorescence over 20 minutes.
Format: biochemical
Method in brief: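 Fluorogenic cleavage of Z-Val-Val-Arg-AMC (20 μM) by 1 nM enzyme in 100 mM potassium phosphate pH 6.5, 5 mM EDTA, 5 mM DTT, 0.001% Triton X-100. Reaction started with substrate; fluorescence (ex 360/em 465 nm) followed over 20 minutes. IC50 by standard methods.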

human Cat S, sequence (P25774 115-331): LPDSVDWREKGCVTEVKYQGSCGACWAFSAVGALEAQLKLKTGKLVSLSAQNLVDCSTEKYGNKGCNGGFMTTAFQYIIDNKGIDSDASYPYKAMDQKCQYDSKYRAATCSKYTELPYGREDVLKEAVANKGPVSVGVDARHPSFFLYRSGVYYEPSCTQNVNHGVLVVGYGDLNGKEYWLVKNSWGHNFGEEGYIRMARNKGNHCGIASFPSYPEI

Row | SMILES | IC50
1 | CO[C@@H]1C[C@H](S(=O)(=O)c2ccc(-c3ccnc(C)c3)cc2C(F)(F)F)C[C@H]1C(=O)NC1(C#N)CC1 (racemic) [Example 77, (1R,2R,4R) and (1S,2S,4S)-2-Methoxy-4-[4-(2-methyl-pyridin-4-yl)-2-trifluoromethyl-benzenesulfonyl]-cyclopentanecarboxylic acid (1-cyano-cyclopropyl)-amide] | 0.6 nM
2 | N#CC1(NC(=O)[C@@H]2C[C@@H](S(=O)(=O)c3ccc(F)cc3Cl)C[C@H]2COc2ccccc2)CC1 [Example 164, (1R,2R,4S)-4-(2-Chloro-4-fluoro-benzenesulfonyl)-2-phenoxymethyl-cyclopentanecarboxylic acid (1-cyano-cyclopropyl)-amide] | 3 nM
3 | N#CC1(NC(=O)[C@H]2CC[C@H](S(=O)(=O)c3ccc(N4CCC(F)(F)C4)cc3Cl)C2)CC1 (racemic) [Example 96, (1S,3S) and (1R,3R)-3-[2-chloro-4-(3,3-difluoro-pyrrolidin-1-yl)-benzenesulfonyl]-cyclopentanecarboxylic acid (1-cyano-cyclopropyl)-amide] | 213 nM
4 | CCO[C@@H]1C[C@H](S(=O)(=O)c2ccc(-c3c(C)noc3C)cc2C(F)(F)F)C[C@H]1C(=O)NC1(C#N)CC1 (racemic) [Example 115, (1R,2R,4R) and (1S,2S,4S)-4-[4-(3,5-Dimethyl-isoxazol-4-yl)-2-trifluoromethyl-benzenesulfonyl]-2-ethoxy-cyclopentanecarboxylic acid (1-cyano-cyclopropyl)-amide] | 0.2 nM
5 | CC(C)O[C@@H]1C[C@H](S(=O)(=O)c2ccc(Br)cc2C(F)(F)F)C[C@H]1C(=O)NC1(C#N)CC1 (racemic) [Example 112, (1R,2R,4R) and (1S,2S,4S)-4-(4-Bromo-2-trifluoromethyl-benzenesulfonyl)-2-isopropoxy-cyclopentanecarboxylic acid (1-cyano-cyclopropyl)-amide] | 0.6 nM
6 | CO[C@@H]1C[C@H](S(=O)(=O)c2ccc(-c3cncc(S(C)(=O)=O)c3)cc2C(F)(F)F)C[C@H]1C(=O)NC1(C#N)CC1 (racemic) [Example 83, (1R,2R,4R) and (1S,2S,4S)-4-[4-(5-Methanesulfonyl-pyridin-3-yl)-2-trifluoromethyl-benzenesulfonyl]-2-methoxy-cyclopentanecarboxylic acid (1-cyano-cyclopropyl)-amide] | 0.2 nM
7 | Cn1nccc1-c1ccc(S(=O)(=O)[C@@H]2C[C@@H](C(=O)NC3(C#N)CC3)[C@H](C(=O)N3CC(F)(F)C3)C2)c(C(F)(F)F)c1 [Example 124, (1R,2R,4R)-2-(3,3-Difluoro-azetidine-1-carbonyl)-4-[4-(2-methyl-2H-pyrazol-3-yl)-2-trifluoromethyl-benzenesulfonyl]-cyclopentanecarboxylic acid (1-cyano-cyclopropyl)-amide] | 0.2 nM
8 | CCN1CCC(C#N)(NC(=O)[C@@H]2C[C@@H](S(=O)(=O)c3ccccc3C(F)(F)F)C[C@H]2OCc2ccc(Cl)cc2)CC1 (racemic) [Example 239, (1R,2R,4R) and (1S,2S,4S)-2-(4-Chloro-benzyloxy)-4-(2-trifluoromethyl-benzenesulfonyl)-cyclopentanecarboxylic acid (4-cyano-1-ethyl-piperidin-4-yl)-amide] | 6.25 nM
9 | N#CC1(NC(=O)[C@@H]2C[C@@H](S(=O)(=O)c3ccccc3)C[C@H]2C(=O)Nc2ccc(F)cc2)CC1 [Example 42, (1R,2R,4S)-4-Benzenesulfonyl-cyclopentane-1,2-dicarboxylic acid 1-[(1-cyano-cyclopropyl)-amide]2-[(4-fluoro-phenyl)-amide]] | 25.5 nM
10 | C[C@H](Oc1ccc(S(=O)(=O)[C@@H]2C[C@@H](C(=O)NC3(C#N)CC3)[C@H](C(=O)N3CCC(F)(F)C3)C2)c(Cl)c1)C(F)(F)F [Example 190, (1R,2R,4R)-4-[2-Chloro-4-((S)-2,2,2-trifluoro-1-methyl-ethoxy)-benzenesulfonyl]-2-(3,3-difluoro-pyrrolidine-1-carbonyl)-cyclopentanecarboxylic acid (1-cyano-cyclopropyl)-amide] | 0.84 nM
